Measurements taken from US12447151B2, “Alkyne derivative, preparation method for same, and uses thereof” (ZHEJIANG HISUN PHARMACEUTICAL CO., LTD., priority 2019, dated 2025).

Tests used:
[1] = system: CT26 mouse colon cancer cell subcutaneously transplanted tumor; experiment: Growth inhibition of CT26 mouse colon cancer subcutaneously transplanted tumor model, alone and combined with PD-L1 monoclonal antibody; type: in vivo, BALB/c mice; details: 21st day after administration, Example 2 60 mg/kg gavage once a day, Anti-PD-L1 200 μg each i.p. once every 3 days, 4 times; for IR(%), tumor inhibition percentage: by tumor weight
Protocol: The anti-tumor effect of the combination of the compound of Example 2 and PD-L1 monoclonal antibody in CT26 mouse colon cancer cell subcutaneously transplanted tumor model was evaluated.
An appropriate amount of the compound of Example 2 was weighed into a centrifuge tube, and 5% NMP 95% PEG400 was added. The mixture was vortexed to a fully soluble solution with a concentration of 6 mg/mL, which was prepared before immediate use.
Recombinant anti-PD-L1 whole mouse monoclonal antibody (InVivoMAb anti-mouse PD-L1 (B7-H1), purchased from Bioxcell, Clone 10F.9G2, catalog number: BE0101, batch number: 720619F1) was diluted with PBS so that the concentration was 1 mg/mL, which was prepared before immediate use.
BALB/c mice, female, 7-8 weeks (the age of mice at the time of tumor cell inoculation), weight of 18.4-19.1 g, 9 mice in each group, purchased from Zhejiang Weitong Lihua Laboratory Animal Technology Co., Ltd., license number: SOCK (Zhejiang) 2019-0001.
CT26 mouse colon cancer cells were cultured in RPMI-1640 culture medium containing 10% fetal bovine serum, 100 U/mL penicillin and 100 μg/mL streptomycin. CT26 cells in the exponential growth phase were collected and resuspended in PBS to a suitable concentration for subcutaneous tumor inoculation in mice.
Female BALB/c mice were subcutaneously inoculated with 2.5×10^5 CT26 cells on the back. When the average tumor volume was about 127 mm^3, they were randomly grouped according to the size of the tumor. They were divided into 4 groups with each group of 9 animals, and the day of grouping was defined as day 0.
After tumor inoculation, routine monitoring included the effects of tumor growth and treatment on the normal behavior of animals. The specific content included the activity of the experimental animal, food and water consumption, weight gain or loss, abnormal conditions of eyes, coat and others. The tumor volume was weighed and measured twice a week. The administration period was 21 days. On the 21st day, the mice were weighed and the tumor volume was measured. The next day after the tumor volume was measured, the mice were sacrificed and tumor masses were taken and weighed. The tumor volume (TV), relative tumor volume (RTV), relative tumor growth rate (T/C), tumor inhibition percentage (IR) and relative tumor inhibition rate (TGI) were calculated, and statistical testing was performed. The calculation formulas were as follows:
(1) TV=1/2×a×b^2, where a and b represent the length and width of the tumor respectively;
(2) RTV=Vt/V0, where V0 is the tumor volume measured during administration in grouping (i.e. d0), and Vt is the tumor volume during each measurement;

[2] = Oral pharmacokinetics in ICR mice; type: in vivo; details: male, mouse, plasma, Oral (5 mg/kg)
Protocol: Using ICR mice as the test animals, the mice were intragastrically administrated with the compound of the present invention. LC/MS/MS method was used to determine the drug concentration in the plasma at different times to study the pharmacokinetic characteristics of the compound of the present invention in mice.
An appropriate amount of the compound to be tested was weighed, and 0.5% sodium carboxymethylcellulose (containing 0.05% Tween80) was added. The mixture was vortexed, and sonicated so that the solid was ultrasonically dispersed uniformly to obtain a suspension; 100 μL×2 of the preparation were aspirated, and placed in 1.5-mL EP tubes, stored at 2 to 8° C. The concentration of the preparation was 0.5 mg/mL.
Twenty-seven healthy adult ICR male mice were fasted overnight and then intragastrically administered (dosage of administration was 5 mg/kg), and fed 4 hours after administration.
At 0.083 hours, 0.25 hours, 0.5 hours, 1 hour, 2 hours, 4 hours, 8 hours, 12 hours, and 24 hours after administration, 80 μL of blood was collected from the orbital vein. About 0.08 mL of blood was collected, and placed in EDTA-K2 anticoagulation tube. […] The collected plasma was stored at −40 to −20° C. before analysis. The […] method was used to determine the content of the test compound in the plasma of ICR mice after intragastric administration of different compounds.

recombinant human PI3Kδ = recombinant human PI3Kδ (Homo sapiens (Human), UniProt O00329); experiment: Inhibitory activity on PI3K kinase (ADP-Glo Kinase Assay)
Sequence of recombinant human PI3Kδ (O00329 whole entry): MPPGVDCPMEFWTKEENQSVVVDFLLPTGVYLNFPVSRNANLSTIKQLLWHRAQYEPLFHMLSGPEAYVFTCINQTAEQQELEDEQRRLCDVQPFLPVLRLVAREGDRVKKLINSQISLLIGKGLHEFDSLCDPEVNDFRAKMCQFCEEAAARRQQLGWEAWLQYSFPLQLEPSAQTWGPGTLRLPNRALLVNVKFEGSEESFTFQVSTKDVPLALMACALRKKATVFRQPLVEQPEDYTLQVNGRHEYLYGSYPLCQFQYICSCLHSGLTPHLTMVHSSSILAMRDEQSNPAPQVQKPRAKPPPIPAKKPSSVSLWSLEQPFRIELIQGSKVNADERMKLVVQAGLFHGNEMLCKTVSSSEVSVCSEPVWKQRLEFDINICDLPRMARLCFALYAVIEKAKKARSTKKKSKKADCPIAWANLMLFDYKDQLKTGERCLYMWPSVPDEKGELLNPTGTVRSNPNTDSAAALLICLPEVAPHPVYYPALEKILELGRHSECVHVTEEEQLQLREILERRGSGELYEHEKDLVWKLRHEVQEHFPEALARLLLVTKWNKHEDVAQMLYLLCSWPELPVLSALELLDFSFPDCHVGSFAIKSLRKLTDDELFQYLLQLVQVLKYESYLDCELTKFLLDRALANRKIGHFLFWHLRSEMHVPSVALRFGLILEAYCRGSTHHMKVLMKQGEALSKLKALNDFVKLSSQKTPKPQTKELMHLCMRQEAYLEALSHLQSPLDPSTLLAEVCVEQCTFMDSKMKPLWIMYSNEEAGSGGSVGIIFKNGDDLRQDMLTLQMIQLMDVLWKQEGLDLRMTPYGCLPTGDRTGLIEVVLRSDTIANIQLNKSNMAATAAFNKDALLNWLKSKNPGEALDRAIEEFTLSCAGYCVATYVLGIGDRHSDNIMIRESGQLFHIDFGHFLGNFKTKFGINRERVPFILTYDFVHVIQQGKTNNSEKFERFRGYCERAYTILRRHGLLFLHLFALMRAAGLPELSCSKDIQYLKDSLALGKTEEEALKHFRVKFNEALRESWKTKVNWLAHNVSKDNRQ
Sequence of recombinant human PI3Kδ (P27986 whole entry partner): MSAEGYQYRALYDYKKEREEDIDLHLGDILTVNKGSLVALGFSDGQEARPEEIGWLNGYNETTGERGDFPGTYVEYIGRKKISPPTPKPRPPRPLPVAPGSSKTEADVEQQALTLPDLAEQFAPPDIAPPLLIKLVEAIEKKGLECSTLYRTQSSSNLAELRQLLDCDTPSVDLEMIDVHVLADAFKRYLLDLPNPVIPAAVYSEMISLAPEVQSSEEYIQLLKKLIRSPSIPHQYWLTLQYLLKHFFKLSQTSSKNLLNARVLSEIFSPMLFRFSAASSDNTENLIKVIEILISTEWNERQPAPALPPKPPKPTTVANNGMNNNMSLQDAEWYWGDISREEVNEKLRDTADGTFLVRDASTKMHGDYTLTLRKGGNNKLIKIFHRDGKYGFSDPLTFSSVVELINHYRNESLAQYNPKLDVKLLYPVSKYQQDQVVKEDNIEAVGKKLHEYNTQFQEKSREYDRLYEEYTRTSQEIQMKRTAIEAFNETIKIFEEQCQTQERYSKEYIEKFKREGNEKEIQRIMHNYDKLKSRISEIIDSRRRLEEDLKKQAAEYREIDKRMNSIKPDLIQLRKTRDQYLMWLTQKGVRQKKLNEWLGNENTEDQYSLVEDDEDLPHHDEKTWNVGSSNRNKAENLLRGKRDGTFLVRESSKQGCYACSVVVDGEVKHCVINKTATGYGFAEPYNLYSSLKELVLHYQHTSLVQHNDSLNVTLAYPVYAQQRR

recombinant human PI3Kγ = recombinant human PI3Kγ (Homo sapiens (Human), UniProt P48736); experiment: as above; type: biochemical
Sequence of recombinant human PI3Kγ (P48736 whole entry): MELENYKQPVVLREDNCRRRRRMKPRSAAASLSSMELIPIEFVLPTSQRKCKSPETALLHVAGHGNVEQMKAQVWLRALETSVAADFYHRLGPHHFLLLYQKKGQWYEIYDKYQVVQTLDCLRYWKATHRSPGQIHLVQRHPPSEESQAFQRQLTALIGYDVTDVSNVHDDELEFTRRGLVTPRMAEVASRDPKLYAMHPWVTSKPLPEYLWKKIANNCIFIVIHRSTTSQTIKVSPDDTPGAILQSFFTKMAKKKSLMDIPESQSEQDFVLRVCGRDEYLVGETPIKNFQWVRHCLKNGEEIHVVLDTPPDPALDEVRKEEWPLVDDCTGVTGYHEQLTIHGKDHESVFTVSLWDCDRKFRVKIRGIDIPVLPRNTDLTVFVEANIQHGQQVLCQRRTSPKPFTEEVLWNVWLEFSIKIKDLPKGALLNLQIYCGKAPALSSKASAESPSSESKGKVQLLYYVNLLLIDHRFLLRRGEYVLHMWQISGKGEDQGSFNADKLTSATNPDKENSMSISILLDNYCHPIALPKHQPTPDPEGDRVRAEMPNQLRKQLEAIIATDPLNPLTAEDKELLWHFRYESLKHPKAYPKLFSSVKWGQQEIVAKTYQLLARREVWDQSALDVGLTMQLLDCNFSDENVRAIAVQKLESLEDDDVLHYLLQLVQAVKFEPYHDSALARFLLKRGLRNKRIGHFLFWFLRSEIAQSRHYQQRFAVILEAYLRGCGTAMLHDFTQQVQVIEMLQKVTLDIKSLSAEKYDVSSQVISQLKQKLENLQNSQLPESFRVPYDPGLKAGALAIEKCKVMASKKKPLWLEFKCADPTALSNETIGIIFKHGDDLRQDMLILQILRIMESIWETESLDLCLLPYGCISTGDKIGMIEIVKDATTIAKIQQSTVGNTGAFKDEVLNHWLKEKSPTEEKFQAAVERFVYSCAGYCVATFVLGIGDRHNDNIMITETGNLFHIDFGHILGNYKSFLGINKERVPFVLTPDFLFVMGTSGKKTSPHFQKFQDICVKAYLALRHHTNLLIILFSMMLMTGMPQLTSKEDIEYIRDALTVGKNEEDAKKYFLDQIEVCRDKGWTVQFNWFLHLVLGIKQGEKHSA
From the text: The following method is used to determine the degree of inhibition of recombinant human PI3Kα, PI3Kβ, PI3Kγ and PI3Kδ kinase activity by the compounds of the present invention under in vitro conditions. Promega's ADP-Glo Kinase Assay Kit (Cat. No. V9102) was used in this method. The above kit was a luminescence kinase detection kit, which was used to detect the ADP content produced by the kinase reaction. The ADP content was positively correlated with the kinase activity. By measuring the ADP content, the inhibition of the compound on the activity of PI3Kα, PI3Kβ, PI3Kγ and PI3Kδ kinases was reflected. For detailed experimental operations, please refer to the kit instructions. Recombinant human PI3Kα, PI3Kγ, and PI3Kδ were purchased from Invitrogen, and PI3Kβ was purchased from Promega (category numbers were PI3Kα: PV4788; PI3Kβ: V1751; PI3Kγ: PV4786 and PI3Kδ: PV6451 separately).

With `C[C@H](NC(=O)c1c(N)nn2cccnc12)c1nc2cccc(C#Cc3cnn(C4CC4)c3)c2c(=O)n1-c1ccccc1` [Example 2, (S)-2-amino-N-(1-(5-((1-cyclopropyl-1H-pyrazol-4-yl)ethynyl)-4-oxo-3-phenyl-3,4-dihydroquinazolin-2-yl)ethyl)pyrazolo[1,5-a]pyrimidine-3-carboxamide] as the compound, how does the “RTV (x ± S), relative tumor volume” value [1] read?
The value was 5.47 ± 1.05.

What about the “TGI (%), relative tumor inhibition rate” value [1] of the same compound?
The value was 51.2%.

What about the “Tumor weight (g) (x ± S)” value [1] of the same compound?
Its value is 0.5942 ± 0.1730 g.

What about the “TV (x ± S), tumor volume” value ([1]; in mm³ (unit assumed)) of the same compound?
The value was 723.47 ± 159.50.

And the “IR(%), tumor inhibition percentage” value ([1]; listed as Compound of Example 2)?
Its value is 52.1%.

And the “IR(%), tumor inhibition percentage” value ([1]; listed as compound of Example 2)?
The value was 52.1%.

And the AUC(0-inf) ([2]; read-out: Area under the curve AUC0-∞)?
The AUC(0-inf) was 15100 ng·h/mL.

And the bioavailability ([2]; read-out: Bioavailability F)?
The bioavailability was 60%.

And the half-life ([2]; read-out: Half-life period T½ (converted))?
The half-life was 3.4 h.

And the Cmax ([2]; read-out: Plasma concentration Cmax)?
Its Cmax is 1730 ng/mL.

What about the IC50 (recombinant human PI3Kδ) of the same compound?
The IC50 was 191 nM.

And the IC50 (recombinant human PI3Kγ; ADP-Glo, ATP 10 μM)?
Its IC50 is 0.58 nM.

What about the “IC50 (PI3Kα)/IC50(PI3Kγ)” value (recombinant human PI3Kγ; kinase selectivity for PI3Kγ over PI3Kα) of the same compound?
The value was 370.

What about the “IC50 (PI3Kβ)/IC50(PI3Kγ)” value (recombinant human PI3Kγ; kinase selectivity for PI3Kγ over PI3Kβ) of the same compound?
The value was 804.

What about the “IC50 (PI3Kδ)/IC50(PI3Kγ)” value (recombinant human PI3Kγ; kinase selectivity for PI3Kγ over PI3Kδ) of the same compound?
Its value is 330.
